Data reported in PubChem BioAssay (NCI).
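Five compound concentrations were applied to cells in 96-well plates for 48 hours; endpoints were derived by simple linear interpolation of the resulting dose-response curve. GI50: concentration for 50% inhibition of growth. At the TGI there is no net growth.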

Assays:
Assay in all cases: growth of human tumour cells (NCI), 48 h
[1] = tested on: HOP-92 NSCLC
[2] = tested on: SK-MEL-5 melanoma
[3] = tested on: UACC-257 melanoma
[4] = tested on: SR leukemia
[5] = tested on: SW-620 colon
[6] = tested on: BT-549 breast
[7] = tested on: OVCAR-4 ovarian
[8] = tested on: HT29 colon
[9] = tested on: SF-295 CNS
[10] = tested on: IGROV1 ovarian
[11] = tested on: NCI/ADR-RES ovarian
[12] = tested on: OVCAR-3 ovarian
[13] = tested on: COLO 205 colon
[14] = tested on: KM12 colon
[15] = tested on: UO-31 renal
[16] = tested on: DU-145 prostate
[17] = tested on: SK-OV-3 ovarian
[18] = tested on: CAKI-1 renal
[19] = tested on: T-47D breast
[20] = tested on: MDA-MB-435
[21] = tested on: HCC-2998 colon
[22] = tested on: SF-268 CNS
[23] = tested on: SN12C renal
[24] = tested on: HCT-15 colon
[25] = tested on: SNB-19 CNS
[26] = tested on: A549 NSCLC
[27] = tested on: K-562 leukemia
[28] = tested on: MDA-MB-231 breast
[29] = tested on: OVCAR-5 ovarian
[30] = tested on: ACHN renal
[31] = tested on: NCI-H23 lung
[32] = tested on: HOP-62 NSCLC
[33] = tested on: OVCAR-8 ovarian
[34] = tested on: MOLT-4 leukemia
[35] = tested on: M14 melanoma
[36] = tested on: NCI-H522 lung
[37] = tested on: EKVX NSCLC
[38] = tested on: HCT-116 colon
[39] = tested on: NCI-H226 lung
[40] = tested on: LOX IMVI melanoma
[41] = tested on: SK-MEL-2 melanoma
[42] = tested on: A498 renal
[43] = tested on: RPMI-8226 leukemia
[44] = tested on: MCF7 breast
[45] = tested on: 786-0 renal
[46] = tested on: SK-MEL-28 melanoma
[47] = tested on: HS 578T breast
[48] = tested on: UACC-62 melanoma
[49] = tested on: TK-10 renal
[50] = tested on: MALME-3M melanoma
[51] = tested on: SF-539 CNS
[52] = tested on: PC-3 prostate
[53] = tested on: NCI-H460 lung
[54] = tested on: RXF 393 renal
[55] = tested on: U251 CNS

Cn1ccc2c1SSSSS2
GI50 [1]: 2.88 µM
TGI [1]: 7.66 µM
GI50 [2]: 16.5 µM
TGI [2]: 35.9 µM
GI50 [3]: 52.3 µM
TGI [3]: > 100 µM
GI50 [4]: 4.6 µM
TGI [4]: 33.8 µM
GI50 [5]: 29.1 µM
TGI [5]: 84.7 µM
GI50 [6]: 61.4 µM
TGI [6]: > 100 µM
GI50 [7]: 21.8 µM
TGI [7]: 56 µM
GI50 [8]: 24.1 µM
TGI [8]: 59.6 µM
GI50 [9]: 41.3 µM
TGI [9]: > 100 µM
GI50 [10]: 35.9 µM
TGI [10]: > 100 µM
GI50 [11]: 22.8 µM
TGI [11]: 54.7 µM
GI50 [12]: 16.5 µM
TGI [12]: 36.1 µM
GI50 [13]: 15.1 µM
TGI [13]: 41.6 µM
GI50 [14]: 17 µM
TGI [14]: 35.8 µM
GI50 [15]: 36 µM
TGI [15]: > 100 µM
GI50 [16]: 31.7 µM
TGI [16]: > 100 µM
GI50 [17]: 37.5 µM
TGI [17]: > 100 µM
GI50 [18]: 22.4 µM
TGI [18]: 45.7 µM
GI50 [19]: 11.8 µM
TGI [19]: 47.6 µM
GI50 [20]: 23.7 µM
TGI [20]: 53.8 µM
GI50 [21]: 17.1 µM
TGI [21]: 33 µM
GI50 [22]: 30.8 µM
TGI [22]: > 100 µM
GI50 [23]: 21 µM
TGI [23]: 42 µM
GI50 [24]: 33.8 µM
TGI [24]: > 100 µM
GI50 [25]: 36 µM
TGI [25]: > 100 µM
GI50 [26]: 52.2 µM
TGI [26]: > 100 µM
GI50 [27]: 23.2 µM
TGI [27]: > 100 µM
GI50 [28]: 17.9 µM
TGI [28]: 45.8 µM
GI50 [29]: 23 µM
TGI [29]: 47.1 µM
GI50 [30]: 28.4 µM
TGI [30]: 73.3 µM
GI50 [31]: 18.9 µM
TGI [31]: 36.4 µM
GI50 [32]: > 100 µM
TGI [32]: > 100 µM
GI50 [33]: 96.7 µM
TGI [33]: > 100 µM
GI50 [34]: 28.5 µM
TGI [34]: > 100 µM
GI50 [35]: 18 µM
TGI [35]: 35.6 µM
GI50 [36]: 32.1 µM
TGI [36]: > 100 µM
GI50 [37]: 44.5 µM
TGI [37]: > 100 µM
GI50 [38]: 17.4 µM
TGI [38]: 31.1 µM
GI50 [39]: 21.5 µM
TGI [39]: 51 µM
GI50 [40]: 24.8 µM
TGI [40]: 71 µM
GI50 [41]: 49.6 µM
TGI [41]: > 100 µM
GI50 [42]: > 100 µM
TGI [42]: > 100 µM
GI50 [43]: 20.9 µM
TGI [43]: 52.9 µM
GI50 [44]: 17.4 µM
TGI [44]: 43.2 µM
GI50 [45]: 26.4 µM
TGI [45]: 58.7 µM
GI50 [46]: 21.1 µM
TGI [46]: 47.5 µM
GI50 [47]: 28.8 µM
TGI [47]: 71.2 µM
GI50 [48]: 17.3 µM
TGI [48]: 34.6 µM
GI50 [49]: 27.1 µM
TGI [49]: 68.9 µM
GI50 [50]: 11.2 µM
TGI [50]: 41.6 µM
GI50 [51]: 25.6 µM
TGI [51]: 69.8 µM
GI50 [52]: 25.3 µM
TGI [52]: 66.4 µM
GI50 [53]: 47.6 µM
TGI [53]: > 100 µM
GI50 [54]: 28.9 µM
TGI [54]: > 100 µM
GI50 [55]: 40 µM
TGI [55]: > 100 µM
